Experimental data as given in PubChem BioAssay AID504897 (Southern Research Specialized Biocontainment Screening …, 2011).
Activity calls are given as the source filed them. How the calls were made is not given here.

What was measured:
[1] = test system: Mycobacterium tuberculosis H37Rv growth inhibition, 7H9 medium; assay: M. tuberculosis growth inhibition, dose response, H37Rv, 7H9 media, purified and synthesized compounds, set 6 (AID 504897); conditions: for IC50: measured here: IC50 of Mtb growth inhibition
[2] = as above; conditions: Mycobacterium tuberculosis H37Rv growth inhibition, 7H9 medium; at 100 µM (top of the series)

| Compound | IC90 [1] [nM] | IC50 [1] [nM] | inhibition [2] |
| --- | --- | --- | --- |
| CC(C)N=c1cc2n(-c3ccc(Cl)cc3)c3ccccc3nc-2cc1Nc1ccc(Cl)cc1 | 396 | 67 | – |
| COc1ccc(NC(=O)CSc2nc3ccccc3c(=O)[nH]2)cc1 | – | – | 1.71% (inactive) |
| NC[C@H]1O[C@H](O[C@H]2[C@H](O)[C@@H](O[C@H]3O[C@H](CO)[C@@H](O)[C@H](N)[C@H]3O)[C@H](N)C[C@@H]2N)[C@H](O)[C@@H](O)[C@@H]1O | 2120 | 1390 | – |
| CC1CCN(C(=O)CSc2nc3ccccc3c(=O)[nH]2)CC1 | – | – | 3.89% (inactive) |
| COC(=O)C(Nc1nc(SCC(=O)NC2CCCCC2)nc2ccccc12)c1ccccc1 (centres undefined) | – | – | 9.91% (inactive) |
| CCC(Sc1nc2ccccc2c(=O)[nH]1)C(=O)Nc1cccc(OC)c1 (centres undefined) | – | – | 4.58% (inactive) |
| Cc1cccc(/C=C/C(=O)c2ccc([N+](=O)[O-])o2)c1 | 938 | 495 | – |
| Cc1nc(SCC(=O)N(C)c2ccccc2)[nH]c(=O)c1C | – | – | -3.37% (inactive) |
| CC(Sc1nc2ccccc2c(=O)[nH]1)C(=O)NC1CCCCC1 (centres undefined) | – | – | -1.17% (inactive) |
| Cc1[nH]c2ccccc2c1C(=O)COC(=O)c1ccc([N+](=O)[O-])s1 | – | > 67400 | – |
| O=C(CSc1ccccn1)NC1CCCCC1 | – | > 100000 | – |
| CCOC1OC(=O)C(Cl)=C1Nc1ccccc1C (centres undefined) | 5920 | 3220 | – |
| CC(C)NC(=O)CSc1nc2ccccc2c(=O)[nH]1 | 14200 | 5840 | – |
| Cc1cccc(-c2oc3ccc(-c4ccc5c(c4)OCO5)cc3c2C#Cc2cncn2C)c1 | 2980 | 2410 | – |
| Nc1cc(=O)[nH]c(SCC(=O)NC2CCCCC2)n1 | – | – | -4.53% (inactive) |
| CC[N+](C)(CC)CCCCOc1ccc2c(c1)C(=O)c1cc(OCCCC[N+](C)(CC)CC)ccc1-2 | 2650 | 1770 | – |
| Cc1ccc(NC(=O)CSc2nc3ccccc3c(=O)[nH]2)cc1Cl | – | – | -4.35% (inactive) |
| Cc1nc(SCc2ccccc2Cl)[nH]c(=O)c1C | – | – | -10.5% (inactive) |
| NNC(=O)c1ccncc1 | 294 | 175 | – |
| Cc1cc(=O)[nH]c(=S)[nH]1 | – | – | -3.5% (inactive) |
| CC(C)CNC(=O)CSc1nc2ccccc2c(=O)[nH]1 | 432 | 173 | – |
| COc1c(N2CCNC(C)C2)c(F)cc2c(=O)c(C(=O)O)cn(C3CC3)c12 (centres undefined) | 162 | 113 | – |
| CCCCNC(=O)CSc1nc2ccccc2c(=O)[nH]1 | 1210 | 55 | – |

| Compound | IC90 [1] [nM] | IC50 [1] [nM] | inhibition [2] |
| --- | --- | --- | --- |
| CNC(=O)CSc1nc2ccccc2c(=O)[nH]1 | 68100 | 43900 | – |
| Cc1cc(Br)ccc1NC(=O)c1cnc(N2CCN(c3ccccn3)CC2)c2ccccc12 | 2790 | 887 | – |
| O=c1[nH]c(=S)[nH]c2ccccc12 | – | – | -4.69% (inactive) |
| CCSc1nc2ccccc2c(=O)[nH]1 | – | – | -6.01% (inactive) |
| CCC(Sc1nc2ccccc2c(=O)[nH]1)C(=O)NC1CCCCC1 (centres undefined) | – | – | 1.35% (inactive) |
| Cc1cc(C)n2nc(N)c(N=Nc3ccccc3)c2n1 | 6010 | 4940 | – |
| Cc1c[nH]c(=S)[nH]c1=O | – | – | -0.98% (inactive) |
| Cc1nc(SCC(=O)NC2CCCCC2)[nH]c(=O)c1C | 1320 | < 6 | – |
| CCSc1nc(C)c(C)c(=O)[nH]1 | – | – | 0.94% (inactive) |
| O=C(CSc1nc2c(c(=O)[nH]1)CCC2)NC1CCCCC1 | < 69 | < 34 | – |
| CCCc1cc(C(N)=S)ccn1 | – | 7240 | – |
| O=C(CSc1ncccn1)NC1CCCCC1 | – | – | -0.52% (inactive) |
| O=C(CSc1nc2ccccc2c(=O)[nH]1)NC1CCCC1 | 535 | 89 | – |
| Cn1c(SCC(=O)NC2CCCCC2)nc2ccccc2c1=O | – | – | -2.65% (inactive) |
| O=C(CSc1nc2ccccc2c(=O)[nH]1)N1CCOCC1 | – | – | 6.74% (inactive) |
| O=C(CSc1nc2ccccc2c(=O)[nH]1)NCc1ccc(Cl)cc1 | 973 | 554 | – |
| O=c1[nH]c(SCc2ccccc2Cl)nc2c1CCCC2 | – | – | 1.13% (inactive) |
| Cc1[nH]c(=S)[nH]c(=O)c1C | – | – | -0.2% (inactive) |
| CN1CCC(NC(=O)CSc2nc3ccccc3c(=O)[nH]2)CC1 | – | – | -4.24% (inactive) |
| CCC(Sc1nc2c(c(=O)[nH]1)CCC2)C(=O)Nc1cccc(OC)c1 (centres undefined) | – | – | 1.68% (inactive) |
| CC1CCN(C(=O)C2CCN(c3nnc(-n4cccc4)s3)CC2)CC1 | 3900 | 2750 | – |
| Cc1cnc(SCC(=O)NC2CCCCC2)[nH]c1=O | – | – | 0.5% (inactive) |
| Cc1cc(=O)[nH]c(SCC(=O)NC2CCCCC2)n1 | – | – | 0.97% (inactive) |

| Compound | IC90 [1] [nM] | IC50 [1] [nM] | inhibition [2] |
| --- | --- | --- | --- |
| O=C(CSc1nc2c(c(=O)[nH]1)CCCC2)NC1CCCCC1 | 81 | < 37 | – |
| CN(C)C(=O)CSc1nc2ccccc2c(=O)[nH]1 | – | – | 0.96% (inactive) |
| Cc1nc(SCC(N)=O)[nH]c(=O)c1C | – | – | -2.86% (inactive) |
| CCOC(=O)CSc1nc(C)c(C)c(=O)[nH]1 | – | – | 3.07% (inactive) |
| COC(=O)C(C)Oc1ccc(Cc2ncc(C(F)(F)F)cc2Cl)cc1 (centres undefined) | 6750 | 3500 | – |
| Cc1ccc(C(=O)N/N=C(/CC(=O)c2cccs2)C(F)(F)F)cc1 | 3100 | 1930 | – |
| CN(C(=O)CSc1nc2ccccc2c(=O)[nH]1)C1CCCCC1 | – | – | -1.28% (inactive) |
| CCOc1ccc(-c2cc(C)[n+](CCc3ccc(OC)c(OC)c3)c(-c3ccc(OCC)cc3)c2)cc1 | 954 | 568 | – |
| CC(C)CCNC(=O)CSc1nc2c(c(=O)[nH]1)CCC2 | 947 | 722 | – |
| COc1cccc(NC(=O)CSc2nc3ccccc3c(=O)[nH]2)c1 | – | – | -3.46% (inactive) |
| NC(=O)CSc1nc2ccccc2c(=O)[nH]1 | – | – | 3.52% (inactive) |
| COC(=O)c1ccc(CNc2c(N3CCCC3)c(=O)c2=O)cc1 | – | > 100000 | – |
| Nc1c(C(=O)NC2CCCCC2)nsc1C(=O)OCC(=O)NC1CCCCC1 | 7450 | 2130 | – |
| c1ccc(/N=C2\N=C(Nc3ccccn3)c3ccccc32)nc1 | 1760 | 1180 | – |
| Cc1nc(SCC(=O)NCCC(C)C)[nH]c(=O)c1C | 8750 | 4900 | – |
| Cc1ccc(NC(=O)COC(=O)CCc2c[nH]c3ccccc23)cc1[N+](=O)[O-] | 4370 | 1340 | – |
| CC(C)CCNC(=O)CSc1nc2ccccc2c(=O)[nH]1 | < 136 | < 81 | – |
| O=C(CSc1nccc(=O)[nH]1)NC1CCCCC1 | – | – | 0.9% (inactive) |
| Cc1nc(SCC(=O)NC2CCCC2)[nH]c(=O)c1C | 8890 | 5120 | – |
| COc1cccc(NC(=O)CSc2nc3c(c(=O)[nH]2)CCC3)c1 | – | – | -0.07% (inactive) |
| CN[C@@H]1[C@H](O[C@H]2[C@H](O[C@H]3[C@H](O)[C@@H](O)[C@H](N=C(N)N)[C@@H](O)[C@@H]3N=C(N)N)O[C@@H](C)[C@]2(O)C=O)O[C@@H](CO)[C@H](O)[C@H]1O | 176 | 101 | – |
| NC(=O)c1cnccn1 | – | > 100000 | – |
